Measured values: PMC12977544, “Phenotypic high-throughput screening identifies modulators of gut microbial choline metabolism” (mBio, 2026)

Experiments:
[1] = test system: high affinity choline transporter (HAChT), choline transport in rat synaptosomes; parameters: method as in PMID 2066974; conditions: cited from earlier work
[2] = test system: Proteus mirabilis lysates; parameters: method as in PMID 30082863; conditions: read-out: IC50 against Proteus mirabilis lysates; cited from earlier work
TMAO production in vivo = test system: TMAO production in vivo; parameters: method as in PMID 30082863; conditions: cited from earlier work
[3] = cited from earlier work
[4] = test system: choline transport into ∆cutC E. coli MS 200-1 cells; test: [14C]-choline uptake; type: cell-based, Escherichia coli MS 200-1 ∆cutC; conditions: 10 µM
Protocol: The ∆cutC strain of E. coli was used in this assay to prevent the formation of volatile radioactive TMA. When cells were grown aerobically, incubation with compound 42 increased choline uptake by 15 times compared to vehicle treatment (Fig. S2B).
E. coli MS 200-1 ∆cutC was grown either aerobically or anaerobically in LB medium supplemented with 1 mM choline chloride. Cells were pelleted and resuspended in fresh PBS after overnight growth to OD600 of 1 and aliquoted into microcentrifuge tubes. […] 5 µM [^14C] choline was added to the cells and left to incubate for 15 mins aerobically. At the end of the incubation period, cells were washed with PBS three times by centrifugation at 3,000 × g for 5 min and resuspended in equal volume of PBS. The resulting cell resuspension in PBS was transferred to a scintillation vial, where 10 mL of liquid scintillation cocktail was added and mixed. Radioactivity was counted using a Beckman Coulter LS6000 liquid scintillation counter for 1 min per sample.

[5] = test system: cut gene cluster expression in E. coli MS 200-1; test: Transcription of the cut gene cluster after choline induction (Nanostring nCounter); conditions: 10 µM, NCE glycerol, 1 mM choline induction, 1.5 h
E. coli MS 200-1 = test: Growth inhibition of E. coli cultures in choline- and glycerol-containing minimal media; type: cell-based, Escherichia coli MS 200-1
Protocol: To validate the potential hits from the HTS, we tested the 178 compounds for inhibition of growth of E. coli MS 200-1 in glycerol minimal media at 30 µg/mL, following up with those without activity. […]. We then determined EC50 values for inhibition of TMA production from choline by bacterial cultures incubated with [trimethyl-d9]choline in phosphate-buffered saline. Of the 178 compounds tested in both growth and TMA inhibition assays, 20 inhibited TMA generation by E. coli MS 200-1 without growth-inhibitory effects in glycerol minimal medium.
NCE media was adapted based on the “no carbon E” media as previously described ([14]), and contains 29 mM potassium phosphate monobasic, 29 mM potassium phosphate dibasic, 17 mM ammonium sodium phosphate dibasic, 40 mM sodium fumarate dibasic, 0.1% (wt/vol) casamino acids, and either 20 mM choline chloride or 3 g/L glycerol. This mixture was supplemented with 1 mM magnesium sulfate, 1% ATCC vitamin supplement, and 1% ATCC trace mineral supplement.

[6] = biological target: T1, purified CutC (choline trimethylamine-lyase) (Oleidesulfovibrio alaskensis, UniProt Q30W70); test: In vitro CutC activity assay coupled to YADH/NADH (absorbance 340 nm); type: biochemical, Desulfovibrio desulfuricans G20; conditions: 5 nM CutC, 200 µM choline, 20°C, anaerobic
T1 construct: made in house
T1 sequence (Q30W70 53-846): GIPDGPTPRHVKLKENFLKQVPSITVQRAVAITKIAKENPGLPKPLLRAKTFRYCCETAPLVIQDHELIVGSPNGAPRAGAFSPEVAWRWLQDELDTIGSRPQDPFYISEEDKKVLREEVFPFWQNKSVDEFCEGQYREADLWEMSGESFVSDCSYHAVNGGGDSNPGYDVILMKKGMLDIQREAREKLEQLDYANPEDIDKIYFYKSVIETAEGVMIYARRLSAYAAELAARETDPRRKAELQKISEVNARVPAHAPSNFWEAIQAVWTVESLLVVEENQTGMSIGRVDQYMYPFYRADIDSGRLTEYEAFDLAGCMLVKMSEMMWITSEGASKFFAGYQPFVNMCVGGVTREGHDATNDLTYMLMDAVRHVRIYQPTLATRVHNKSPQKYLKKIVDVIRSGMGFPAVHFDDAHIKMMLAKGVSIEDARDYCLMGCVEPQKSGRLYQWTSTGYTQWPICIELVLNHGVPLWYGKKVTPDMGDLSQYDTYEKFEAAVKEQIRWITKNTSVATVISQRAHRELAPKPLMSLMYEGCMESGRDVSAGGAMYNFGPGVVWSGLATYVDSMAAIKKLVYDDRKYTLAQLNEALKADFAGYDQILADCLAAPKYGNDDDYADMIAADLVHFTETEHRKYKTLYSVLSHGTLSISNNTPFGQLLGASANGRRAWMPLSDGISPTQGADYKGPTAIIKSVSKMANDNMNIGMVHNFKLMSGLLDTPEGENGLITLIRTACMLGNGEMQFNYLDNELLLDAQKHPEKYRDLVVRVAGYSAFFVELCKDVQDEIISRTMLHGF
Protocol: To investigate if our compounds were inhibiting CutC directly, we tested their activity toward the purified enzyme. The activity of CutC was determined using a coupled enzyme assay, where the acetaldehyde product from the cleavage of choline to TMA is reduced to ethanol by yeast alcohol dehydrogenase (YADH) using nicotinamide adenine dinucleotide (NADH) as a cofactor. The consumption of NADH results in a change in absorption at 340 nm, and this rate of change of absorption was used to calculate the initial rates of reaction of CutC in the presence of varying concentrations of inhibitors ([14], [65]).
CutC and CutD enzymes from Desulfovibrio desulfuricans G20 were purified, CutC was activated by incubation with CutD, and the amount of glycyl radical installation was quantified as previously described ([15]). The IC50 of compounds was determined in an in vitro CutC activity assay, where CutC activity is coupled to the NADH-dependent enzymatic reduction of acetaldehyde by YADH ([15]). Briefly, assays were conducted in an anaerobic chamber (MBraun) under N2 atmosphere at 20°C. In 50 mM potassium phosphate buffer (pH 8.0, 50 mM KCl), 40 µM of CutD and 150 µM of sodium dithionite were incubated for 20 min before the addition of 200 µM of SAM and 20 µM of CutC monomer. The mixture was incubated for 1 h to activate the glycyl radical enzyme, after which the activated CutC mixture was diluted […] in 50 mM potassium phosphate buffer (pH 8.0, 50 mM KCl). A master mix containing 200 µM NADH, 0.4 µM YADH (Sigma), and the diluted CutC mixture (5 nM final concentration in assay) was prepared and aliquoted into 96-well plates (180 µL per well). Ten microliters of inhibitor or DMSO vehicle was added, followed by 10 µL of aqueous choline chloride solution (final concentration 200 µM). Absorbance was measured at 340 nm immediately after addition of all assay components, with measurements taken every 20 s for 10 min. Initial rates were calculated from absorbance measurements and fitted to Michaelis–Menten equation using nonlinear regression in GraphPad Prism 10 (v. 10.4.0). Background activity was subtracted using no substrate controls, and initial rates for each inhibitor concentration were normalized to no inhibitor controls. IC50 values were obtained by plotting normalized activity values against the logarithm of inhibitor concentration and fitting to a nonlinear regression model in GraphPad Prism 10 (v. 10.4.0).

Compound | IC50 [1] | IC50 [2] | EC50 of inhibition of TMAO production in vivo (TMAO production in vivo) | Concentration in mice cecum and colon samples ([3]; dosed at 100 mg/kg, after 24 h) | Level of inhibitor and its metabolite iodomethylbetaine in serum ([3]; mouse, in vivo) | Increase of choline uptake compared to vehicle ([4]; cells grown aerobically) | Increase of choline uptake compared to vehicle ([4]; cells grown anaerobically) | Effect on cut gene cluster expression vs DMSO control [5] | Inhibition of E. coli growth on choline (E. coli MS 200-1; choline minimal medium, 7 h, 6: 125–500 µM, 42: 30–100 µM) | Effect on growth of E. coli MS 200-1 in glycerol medium (E. coli MS 200-1; glycerol NCE minimal medium) | IC50 [6]
C[N+](C)(CI)CCO [IMC, Iodomethylcholine] | 490 nM | 1.5 nM | 45 mg/kg | around 6 mM | low micromolar levels | – | – | – | – | – | –
Cc1ccc(-c2cc(C(=O)NCCCN3CCCCCC3)c(C)[nH]2)cc1C [Compound 42] | – | – | – | – | – | 15 times | 1.2 times | did not significantly change gene expression | dose-dependent | not observed in glycerol | 24000 nM
